# Laboratory results taken from patent US20240366813A1, “PEPTIDE-UREA DERIVATIVE, PHARMACEUTICAL COMPOSITION CONTAINING SAME AND APPLICATION THEREOF” (Bivision Pharmaceuticals, Inc., priority 0001, published 2024).
# Test system: 22rv1 tumor
# Test: Tissue distribution in PSMA-positive 22rv1 tumor-bearing mice
# Assay type: in vivo
# Details: tail vein, FIG. 8
# Procedure: Tissue distribution in PSMA-positive tumor-bearing mice: About 6-9 weeks old (Nod scid) mice (Jiangsu Huajing Molecular Imaging and Drug Research Institute Co., Ltd.) were inoculated subcutaneously with 5×10^6 cells of 22rv1 (in 50% Matrigel, Corning) on the right shoulder of animals. When the tumor grew to a size of about 150-350 mm^3, ^177Lu-E3 radiolabeled compound was injected into the tail vein of the mouse (about 7.4 MBq/mouse, specific activity: 22423.82 KBq/μg). The animals were euthanized by carbon dioxide inhalation at 0.25, 0.5, 1, 6, 24, 72, 144, and 168 hours respectively after administration. Blood and viscera (blood, liver, spleen, lung, heart, muscle, pancreas, testis, tumor) were collected from animals after euthanasia.
# Blood was collected through the abdominal aorta, and immediately after collection, 100 μL was quantified into a designated centrifuge tube (weighed). After the viscera were collected, they were washed twice with deionized water and wiped dry. The viscera were put into a pre-weighed test tube, and weighed again. The weight of the sample was calculated. The sample was measured on the day of collection. All blood samples and tissue samples were measured for radioactive counts using a gamma counter, and the results are shown in FIG. 8.
smiles,measurement,value
O=C([O-])CN1CCN(CC(=O)[O-])CCN(CC(=O)N2CCc3cc(C(=O)NC(Cc4ccc5ccccc5c4)C(=O)NCCCCC(NC(=O)NC(CCC(=O)O)C(=O)O)C(=O)O)ccc3C2)CCN(CC(=O)[O-])CC1.[177Lu+3] (stereo not drawn) [^177Lu-E3],drug concentration in the tumor after 7 days,high drug concentration
same,time of highest uptake in the tumor after administration,2 h
same,uptake in non-target organs,always low
